Measurements published in US20150118179A1, “BIOCIDAL COMPOUNDS AND METHODS FOR USING SAME” (UNIVERSITY OF MANITOBA, priority 2012, published 2015).
Several values for one entry are separate records, joined by “and”; a condition that tells them apart may be missing. Identical values can stand only once. Like-named read-outs stand apart in the source and are kept apart here.

Experiments:
[1] = tested on: methicillin resistant Staphylococcus aureus (MRSA 40065); format: cell-based; conditions: [Cl+] 15 ppm, inoculum 10^6 cfu/ml
Procedure: (§1) Pseudomonas aeruginosa (P. aeruginosa) (#73104, Gram-negative) and Staphylococcus aureus (MRSA) (#40065, Gram-positive) were used as the model microorganism to challenge the antibacterial function of the compounds. It should be noticed that both P. aeruginosa and MRSA are biosafety level 2 microorganisms and potentially biohazardous, therefore the following antibacterial assessments were carried out in a Biological Safety Level 2 cabinet and safety precautions were strictly followed.
(§2) Tryptone Soya agar plates were used as platforms for bacterial cell growth and were prepared following the instructions on the bottle (CM 0131, OXOID). The prepared agar was kept at 65° C. after being autoclaved and the resulting agar plates were stored in fridge at 3-4° C. All glassware and related materials were subjected to autoclave or disinfection with 70% ethanol prior to use.
(§3) Several colonies of each bacteria type were suspended in broth solutions (cation-supplemented Mueller-Hinton broth for P. aeruginosa and tryptic soy broth for MRSA) whose concentrations were equivalent to a 0.5 McFarland standard (1×10^8 cfu/ml). This suspension was then diluted 1:100 and 20 μL of the diluted suspension was further diluted in 60 ml of cation-supplemented Mueller-Hinton broth or tryptic soy broth. Then the prepared bacteria inoculums were incubated overnight at 37° C. to obtain logarithmic-phase cultures. For each microbial study, 0.2 ml (0.02 ml for P. aeruginosa) of the cell suspension was diluted in 19.8 mL (19.98 ml for P. aeruginosa) of phosphate-buffered Saline (PBS, 0.1 M Sodium phosphate monobasic, 0.1 M Sodium phosphate dibasic, pH 7.4) to give a cell concentration of 10^6-10^7 cfu/mL (10^5 cfu/ml for P. aeruginosa). 30 μL of each synthesized compound solution (0.28 N stock solution) were added into the cell suspension to achieve a [Cl^+] of 15 ppm and start timing instantly. The mixture was vortexed several times during the reaction. After contact for the desired time intervals, 1.0 ml cell suspension was withdrawn and added to 1.0 ml of 0.02 N sodium thiosulfate and/or Letheen (1% lecithin, 10% peptone and 0.5% tween 80 dissolved in PBS at pH 7.4) to quench the bactericidal effect. The quenched suspension was then serially diluted (10 times less concentrated than the previous one) and 100 μL of each dilution was placed onto agar plates. The same procedure was applied to the blanks as controls with the same matrices but with no synthesized compounds added. Bacterial colonies on the agar plates were enumerated after being incubated at 37° C. for 22 hours.
(§4) Percentage reduction of bacteria (%)=(A−B)/A×100
(§5) Where A is the number of bacterial colonies in the control (cfu/mL), and B is the number of bacteria colonies under the effect of the synthesized compounds.

P. aeruginosa (73104) = experiment: Antibacterial assessment in PBS suspension (Example 19); format: cell-based, Pseudomonas aeruginosa; conditions: [Cl+] 15 ppm, inoculum 10^5 cfu/ml
Procedure: as §1, §2, §3, §4, §5

CA-MRSA 40065 = experiment: Biocidal activity in bacterial suspension (Example 18); format: cell-based, Staphylococcus aureus; conditions: 15 ppm [Cl+]
Procedure: Logarithmic-phase cultures of MRSA were prepared using similar way except TSA broth was used instead.
(§6) Biocidal activity of synthetic compounds was completed as followed. To 20 mL of bacterial suspension (10^5 or 10^6 cfu/mL) in a centrifuge tube was added 30 μL solution of synthetic compounds (0.282 M stock solution) to achieve a final [Cl^+] of 15 ppm. Timing of the exposure to the disinfectant was started immediately with the addition of the synthetic compound. After predetermined contact time, 1.0 mL aliquots were withdrawn and added to an equal volume of 0.02 N sodium thiosulfate in PBS (0.1 M, pH 7.4). The quenched suspension was serially diluted and 100 μL of each resulting dilution was placed onto nutrient agar plates. After being incubated at 37° C. for 24 hours, the viable bacterial colonies on the plates were counted. Bacterial reduction was reported according to:
as §4
(§7) Log reduction=Log(A/B) (4)
(§8) where A is the number of bacteria in the starting inoculum (cfu/mL), and B is the number of bacteria retrieved from synthetic compounds (cfu/mL).

P. aeruginosa 73104 = experiment: as above; format: cell-based, Pseudomonas aeruginosa; conditions: Table 4, 15 ppm [Cl+], inoculum 2.26-2.98 × 10^5 CFU/mL
Procedure: Logarithmic-phase cultures of P. aeruginosa were prepared by initially suspending several colonies in cation-supplemented Mueller-Hinton broth (Oxoid, Nepean, Ontario, Canada) at a density equivalent to a 0.5 McFarland standard (1×10^8 cfu/mL). This suspension was then diluted 1:100 and 20 μL of the diluted suspension was further diluted in 60 mL of cation-supplemented Mueller-Hinton broth. Following overnight growth at 37° C., suspensions were diluted 1:[…] to get inoculums of approximately 1×10^6 or 1×10^5 cfu/mL.
as §6, §4, §7, §8

[2] = Table 5, contact 3 min, inoculum 2.83 × 10^6 cfu/mL
[3] = Table 5, contact 5 min, inoculum 2.83 × 10^6 cfu/mL
[4] = Table 5, contact 10 min, inoculum 2.83 × 10^6 cfu/mL
[5] = Table 5, contact 20 min, inoculum 2.83 × 10^6 cfu/mL
[6] = Table 5, contact 30 min, inoculum 2.83 × 10^6 cfu/mL
[7] = Table 5, contact 45 min, inoculum 2.83 × 10^6 cfu/mL
[8] = Table 5, contact 60 min, inoculum 2.83 × 10^6 cfu/mL

With `CCCCCCCCCCCC[N+](C)(C)CCCN1C(=O)N(Cl)C(C)(C)C1=O.[Cl-]` [Compound 8] as the compound, how does the “Bacteria Reduction log10” value ([1]; Table 10, contact 1 min) read?
Its value is 0.13 log10.

And the “Bacteria reduction %” value ([1]; Table 10, contact 1 min)?
Its value is 26.1%.

And the “Bacteria Reduction log10” value ([1]; Table 10, contact 3 min)?
Its value is 6.26 log10.

And the “Bacteria reduction %” value ([1]; Table 10, contact 3 min)?
Its value is 100%.

What about the “Bacteria Reduction log10” value ([1]; Table 10, contact 5 min) of the same compound?
The value was 6.26 log10.

What about the “Bacteria reduction %” value ([1]; Table 10, contact 5 min) of the same compound?
Its value is 100%.

What about the “Bacteria Reduction log10” value ([1]; Table 10, contact 10 min) of the same compound?
The value was 6.26 log10.

And the “Bacteria reduction %” value ([1]; Table 10, contact 10 min)?
The value was 100%.

And the “Bacteria Reduction log10” value ([1]; Table 10, contact 60 min)?
The value was 6.26 log10.

What about the “Bacteria reduction %” value ([1]; Table 10, contact 60 min) of the same compound?
Its value is 100%.

And the “Bacteria Reduction log10” value (P. aeruginosa (73104); Table 10, contact 3 min)?
Its value is 5.80 log10.

What about the “Bacteria reduction %” value (P. aeruginosa (73104); Table 10, contact 3 min) of the same compound?
The value was 100%.

And the “Bacteria Reduction log10” value (P. aeruginosa (73104); Table 10, contact 10 min)?
Its value is 5.80 log10.

What about the “Bacteria reduction %” value (P. aeruginosa (73104); Table 10, contact 10 min) of the same compound?
The value was 100%.

And the “Bacteria Reduction log10” value (P. aeruginosa (73104); Table 10, contact 20 min)?
Its value is 5.80 log10.

And the “Bacteria reduction %” value (P. aeruginosa (73104); Table 10, contact 20 min)?
Its value is 100%.

And the “Bacteria Reduction log10” value (P. aeruginosa (73104); Table 10, contact 30 min)?
Its value is 5.80 log10.

What about the “Bacteria reduction %” value (P. aeruginosa (73104); Table 10, contact 30 min) of the same compound?
Its value is 21.4%.

And the “Bacteria Reduction log10” value (P. aeruginosa (73104); Table 10, contact 60 min)?
The value was 5.80 log10.

What about the “Bacteria reduction %” value (P. aeruginosa (73104); Table 10, contact 60 min) of the same compound?
Its value is 100%.

What does the source list for `CCCCCCCCCCCC[N+](C)(C)CCn1cc(C[N+](C)(C)CCCN2C(=O)NC(C)(C)C2=O)nn1` [Compound 15]?
Bacteria reduction % (CA-MRSA 40065; [2]): 86.9%; Bacteria reduction % (CA-MRSA 40065; [3]): 79.5%; Bacteria reduction Log (CA-MRSA 40065; [3]): 0.69 Log; Bacteria reduction % (CA-MRSA 40065; [4]): 85.1%; Bacteria reduction Log (CA-MRSA 40065; [4]): 0.83 Log; Bacteria reduction % (CA-MRSA 40065; [5]): 67.8%; Bacteria reduction Log (CA-MRSA 40065; [5]): 0.49 Log; Bacteria reduction % (CA-MRSA 40065; [6]): 79.8%; Bacteria reduction Log (CA-MRSA 40065; [6]): 0.70 Log; Bacteria reduction % (CA-MRSA 40065; [7]): 92.6%; Bacteria reduction Log (CA-MRSA 40065; [7]): 1.13 Log; Bacteria reduction % (CA-MRSA 40065; [8]): 87.3%; Bacteria reduction Log (CA-MRSA 40065; [8]): 0.89 Log; Bacteria reduction % (CA-MRSA 40065; independent of contact duration (3-60 minutes)): around 80%; Bacteria reduction % (P. aeruginosa 73104; contact 3 min): 75.7%; Bacteria reduction Log (P. aeruginosa 73104; contact 3 min): 0.74 Log; Bacteria reduction % (P. aeruginosa 73104; contact 5 min): 98.4%; Bacteria reduction Log (P. aeruginosa 73104; contact 5 min): 1.88 Log; Bacteria reduction % (P. aeruginosa 73104; contact 10 min): 99.9%; Bacteria reduction Log (P. aeruginosa 73104; contact 10 min): 3.02 Log; Bacteria reduction % (P. aeruginosa 73104; contact 20 min): 99.97%; Bacteria reduction Log (P. aeruginosa 73104; contact 20 min): 4.32 Log; Bacteria reduction % (P. aeruginosa 73104; contact 30 min): 100%; Bacteria reduction Log (P. aeruginosa 73104; contact 30 min): 5.47 Log; Bacteria reduction % (P. aeruginosa 73104; contact 45 min): 100%; Bacteria reduction Log (P. aeruginosa 73104; contact 45 min): 5.47 Log; Bacteria reduction % (P. aeruginosa 73104; contact 60 min): 100%; Bacteria reduction Log (P. aeruginosa 73104; contact 60 min): 5.47 Log

Which Bacteria reduction % (CA-MRSA 40065; [2]) does the source give for `CCCCCCCCCCCC[N+](C)(C)CCn1cc(C[N+](C)(C)CCCN2C(=O)N(Cl)C(C)(C)C2=O)nn1` [Compound 16] here?
The Bacteria reduction % was 84.4%.

And the Bacteria reduction % (CA-MRSA 40065; [3])?
Its Bacteria reduction % is 93.4%.

And the “Bacteria reduction Log” value (CA-MRSA 40065; [3])?
Its value is > 1 Log and 1.18 Log.

And the Bacteria reduction % (CA-MRSA 40065; [4])?
Its Bacteria reduction % is 99.8%.

What about the “Bacteria reduction Log” value (CA-MRSA 40065; [4]) of the same compound?
Its value is 2.77 Log.

What about the Bacteria reduction % (CA-MRSA 40065; [5]) of the same compound?
The Bacteria reduction % was 100%.

And the “Bacteria reduction Log” value (CA-MRSA 40065; [5])?
Its value is 6.45 Log.

And the Bacteria reduction % (CA-MRSA 40065; [6])?
Its Bacteria reduction % is 100%.

What about the “Bacteria reduction Log” value (CA-MRSA 40065; [6]) of the same compound?
Its value is 6.45 Log.

And the Bacteria reduction % (CA-MRSA 40065; [7])?
The Bacteria reduction % was 100%.

And the “Bacteria reduction Log” value (CA-MRSA 40065; [7])?
The value was 6.45 Log.

And the Bacteria reduction % (CA-MRSA 40065; [8])?
The Bacteria reduction % was 100%.

And the “Bacteria reduction Log” value (CA-MRSA 40065; [8])?
The value was 6.45 Log.

And the Bacteria reduction % (P. aeruginosa 73104; contact 3 min)?
Its Bacteria reduction % is 99.6%.

And the “Bacteria reduction Log” value (P. aeruginosa 73104; contact 3 min)?
The value was 2.62 Log.

What about the Bacteria reduction % (P. aeruginosa 73104; contact 5 min) of the same compound?
The Bacteria reduction % was 99.97%.

And the “Bacteria reduction Log” value (P. aeruginosa 73104; contact 5 min)?
Its value is 4.32 Log.

What about the Bacteria reduction % (P. aeruginosa 73104; contact 10 min) of the same compound?
Its Bacteria reduction % is 100%.

What about the “Bacteria reduction Log” value (P. aeruginosa 73104; contact 10 min) of the same compound?
Its value is 5.47 Log.

And the Bacteria reduction % (P. aeruginosa 73104; contact 20 min)?
Its Bacteria reduction % is 100%.

What about the “Bacteria reduction Log” value (P. aeruginosa 73104; contact 20 min) of the same compound?
Its value is 5.47 Log.

What about the Bacteria reduction % (P. aeruginosa 73104; contact 30 min) of the same compound?
The Bacteria reduction % was 100%.

And the “Bacteria reduction Log” value (P. aeruginosa 73104; contact 30 min)?
The value was 5.47 Log.

What about the Bacteria reduction % (P. aeruginosa 73104; contact 45 min) of the same compound?
The Bacteria reduction % was 100%.

And the “Bacteria reduction Log” value (P. aeruginosa 73104; contact 45 min)?
Its value is 5.47 Log.

And the Bacteria reduction % (P. aeruginosa 73104; contact 60 min)?
Its Bacteria reduction % is 100%.

And the “Bacteria reduction Log” value (P. aeruginosa 73104; contact 60 min)?
Its value is 5.47 Log.
